The results in this text go back to PMC9758846, “Dinuclear and mononuclear metal(II) polypyridyl complexes against drug-sensitive and drug-resistant Plasmodium falciparum and their mode of action” (Malaria Journal, 2022).

“And” between values parts separate entries of the source, which are not always exact repeats. Identical values can stand only once.

A short description of data set [1]: PNDA assay of •OH radicals from reaction with H2O2. To be noted: 30 µM compound with excess H2O2. As for the experimental part:
A previously reported spectrometric assay using PNDA was used to quantify the amount of reactive oxygen species (ROS), viz. •OH radicals, produced by the reaction of metal(II) complexes with hydrogen peroxide in borate buffer at pH 7.5 [24–26]. The percentage of PNDA bleaching and the concentration of •OH produced were determined.

Data set [2] relates to Plasmodium falciparum 3D7 (Pf3D7). Put plainly: In vitro anti-malarial activity using SYBR Green I nucleic acid dye. The class given is cell-based. To be noted: 72 h incubation; read-out: IC50 of Pf3D7. As for the experimental part: (§1) The drug-sensitive strain of P. falciparum 3D7 (Pf3D7) was obtained from the Department of Science, Monash University, Malaysia and cultured as previously described. The artemisinin-resistant strain of P. falciparum IPC5202 (Pf5202) was obtained from BEI Resources and cultured as mentioned in the product sheet. Both strains were maintained in sealed flask at 37 °C in a humidified atmosphere of 5% O2, 5% CO2 and 90% N2. All buffer stock solutions for biological assays were autoclaved at 121 °C for 15 min.
(§2) Previously reported anti-malarial assay was used with slight modification using 1% parasitaemia (ring-stage) and 5% haematocrit treated with test compounds at increasing concentration and incubated for 72 h at 37 °C [21–23]. After the incubation, the assay was terminated by freeze/thaw cycle (− 80 °C overnight before thawing for 2 h) before the addition of lysis buffer containing SYBR Green I dye into each well and mixed thoroughly using the belly dancer for 30 min in the dark. Chloroquine diphosphate salt and artemisinin were used as standard drugs. The fluorescence signal was quantified at 485 nm excitation wavelength and 528 nm emission wavelength. IC50 values of each test compound was determined from a dose response curve by non-linear regression analysis.

Data set [3] concerns Plasmodium falciparum IPC5202 (Pf5202). The data set is described as above. It counts as cell-based. To be noted: 72 h incubation; read-out: IC50 of Pf5202. As for the experimental part: as §1, §2
Data set [4] in a line: Solution stability by molar conductivity and visible absorptivity. It counts as physicochemical. To be noted: 24, 48 and 72 h; room temperature. As for the experimental part:
Series of 10 mM stock solutions were prepared by dissolving the compounds in their respective solvents: phen and 4,4′-bipy in 95% ethanol; Cu(NO3)2·3H2O, Zn(NO3)2·6H2O, (1) and (2) in double distilled water; (3) and (4) in DMSO. All the stock solutions were further diluted with double distilled water to obtain 10 mL of 30 µM, 1 mM and 5 mM for their respective studies, viz. 30 µM for ultraviolet spectral studies, 1 mM for conductivity measurement and 5 mM for visible spectral studies. For the water-DMSO solutions of both complexes (3) and (4), the 30 µM, 1 mM and 5 mM solutions have […], 10% DMSO and 50% DMSO respectively. The absorbance at λmax and conductance were of the aqueous solutions were measured at 0, 24, 48 and 72 h. The molar absorptivity and molar conductivity of the metal(II) complex solutions and their precursors were then calculated.

In the case of “[Cu(phen)(NO3)(H2O)-4,4′-bipy-Cu(phen)(NO3)(H2O)](NO3)2 [Complex 3]”, the “Concentration of •OH radical” value worked out at 21.13 ± 0.41 µM in data set [1] (2 h); 22.16 ± 0.36 µM in data set [1] (4 h); 23.51 ± 1.09 µM in data set [1] (24 h); 21.29 ± 1.67 µM in data set [1] (48 h); 18.89 ± 1.45 µM in data set [1] (72 h). In addition, the concentration for half-maximal inhibition (IC50) is 0.9 ± 0.12 µM in data set [2]; 2.2 µM and 2.21 µM in data set [3].
Regarding `O.O=[N+]([O-])[O-].O=[N+]([O-])[O-].[Cu+2].c1cnc2c(c1)ccc1cccnc12.c1cnc2c(c1)ccc1cccnc12` [Complex 1, [Cu(phen)2](NO3)2·H2O], the “Concentration of •OH radical” value in data set [1] (2 h) was 32.20 ± 2.93 µM; in data set [1] (4 h), 34.36 ± 2.62 µM; in data set [1] (24 h), 35.43 ± 1.22 µM; in data set [1] (48 h) it was 32.19 ± 0.52 µM; in data set [1] (72 h) it was 28.96 ± 0.38 µM. The IC50 came out at 3.51 ± 0.47 µM in data set [2] and 17.9 ± 2.73 µM in data set [3]. In data set [4], the “Stability of aqueous solution (molar conductivity; for (1) also visible molar absorptivity)” value is on record as “remains practically unchanged”.

As usually defined, the IC50 is the concentration at which inhibition is half-maximal.
